Data reported in patent US7273604B2, “Anti-asthmatic combinations comprising surface active phospholipids” (Britannia Pharmaceuticals Limited, priority 1998, dated 2007).
Several values for one entry are separate records, joined by “and”; a condition that tells them apart may be missing. Equal values may be shown once.

Test system: bronchial epithelium
Assay: Binding (adsorption) of 14C-labelled DPPC to bronchial epithelium sections, liquid scintillation counting
Design: species or system porcine
Description: • L-α-Phosphatidylcholine, 1,2-di[1-^14 C]palmitoyl in Toluene:Ethanol (1:1 v/v), 114 mCi/mmol, 50 μCi in 2 mL (CFA6O4 B36, Amersham) • L-α-Phosphatidylcholine, dipalmitoyl (C16:0) (P-6267, Sigma) • DL-α-Phosphatidyl-DL-glycerol, dipalmitoyl (C16:0) (P-5650, Sigma) • Egg Phosphatidylglycerol (Batch 24756, Macfarlan Smith, Ltd.) • Sodium Chloride, 0.9%, B.P. (Baxter Healthcare) • Calcium Chloride (C-4901, Sigma) • Toluene (T-4428, Sigma) • Ethanol, AnalaR (10107.7Y, BDH) • NCS-II Tissue Solubilizer, 0.5N Solution (NNCS-502), Amersham) • OCS Organic Counting Scintillant (NOCS104, Amersham) In preparation for the dispersions in which the epithelium would be incubated, stock solutions of the phospholipid components were prepared on the first day of Run 1. These solutions were as follows: • L-α-DPPC, 2.4 mg. mL^−1 in toluene:ethanol, 1:1 • DL-α-DPPG, 3.0 mg. mL^−1 in toluene:ethanol, 1:1 • Egg PG, 3.0 mg. mL^−1 in toluene:ethanol, 1:1 All of the above solutions were stored at 4° C. in glass vials, the threads of which were sealed with teflon tape to minimise evaporation of the solvent. Each glass vial was then placed inside a second, tightly capped glass vial. These solutions were used for each of the five runs in the trial. A solution of 200 mg. L^−1 CaCl^2 in 0.9% saline was also prepared on the first day of Run 2 and was used in each of Runs 2 to 5. […]
Four dispersions were prepared on the first day of each run. […] In addition, Group 2 received 5.5 μL (16.5 μg) DL-α-DPPG, while the same quantity of egg PG was added to Group 3. […] When the number of sections was increased, the volumes of all components were increased accordingly, keeping all quantities in the same proportions as above. […]

| SMILES | binding of DPPC to bronchial epithelium (in words) (DPPC in the presence of the named phosphatidyl glycerol, 1:1, compared with DPPC only) | Total DPPC Adsorbed to Bronchial Epithelium (individual sections, incubation at 37° C. for 24 h in 0.9% saline dispersion, rinsed 20 times) | Total DPPC Adsorbed to Bronchial Epithelium, Mean (mean of n 10 sections, incubation at 37° C. for 24 h in 0.9% saline dispersion, rinsed 20 times) [μg/cm^2] |
| --- | --- | --- | --- |
| CCCCCCCCCCCCCCCC(=O)OCC(COP(=O)(O)OCC(O)CO)OC(=O)CCCCCCCCCCCCCCC (racemic) [DPPG, DL-α-Phosphatidyl-DL-glycerol, dipalmitoyl (C16:0)] | increased binding of DPPC to bronchial epithelium |  |  |
| CCCCCCCCCCCCCCCC(=O)OC[C@H](COP(=O)([O-])OCC[N+](C)(C)C)OC(=O)CCCCCCCCCCCCCCC [DPPC, dipalmitoyl phosphatidyl choline] |  | 0.280 μg/cm^2 and 0.528 μg/cm^2 and 0.192 μg/cm^2 and 0.340 μg/cm^2 and 0.321 μg/cm^2 and 0.341 μg/cm^2 and 0.299 μg/cm^2 and 0.219 μg/cm^2 and 0.116 μg/cm^2 and 0.276 μg/cm^2 | 0.291 |
